Source: publication PMC5048394, “Development and substrate specificity screening of an in vivo biosensor for the detection of biomass derived aromatic chemical building blocks” (Chemical Communications (Cambridge, England), 2016)
Like-named read-outs stand apart in the source and are kept apart here.

Experiments:
[1] = test system: PLC biosensor; test: microbe, parasite or virus in culture; type: cell-based, E. coli BL21
Experimental: (§1) Cells were centrifuged, washed and re-suspended with PBS buffer. The expression output was then analyzed by monitoring the fluorescence normalised to cell density (RFU/OD600) in a multimode plate reader (Methods, ESI ^†).
(§2) The sequences containing the PLC, PPC and PferB promoters, a RBS, and a Hexa-Histidine tag, flanked by SphI/NdeI were synthetized (GeneART, ThermoFisher). The sequences were enzyme restricted with SphI/NdeI and cloned in pET44eGFP,2 upstream to the eGFP gene, replacing the T7 promoter region generating respectively, the pET44PLCeGFP, pET44PPCeGFP and pET44PferBeGFP vectors.
(§3) The FerCA DNA sequence containing the ferA and ferC genes, individually flanked by a PLacI promoter and an rrn_B1 terminator, was synthetized by GeneARTTM (ThermoFisher).
(§4) The construct was cloned in a p15 plasmid flanked by NaeI/KasI restriction sites generating […]
(§5) the p15FerCA vector. […]
(§6) Biosensors Performance and Screening Methods
(§7) Reporter controls and the biosensor systems PLC, PPC and PferB were respectively generated by transformation of pET44PLCeGFP, pET44PPCeGFP and pET44PFerBeGFP vectors alone or with p15FerCA in BL21 and DH10B chemically competent E. coli cells. A single colony of each system was grown in LB media supplemented with antibiotics at 37 °C with shaking at 180rpm for 16 hours. Cultures were diluted (1:100) in fresh LB media with appropriate antibiotics, re-incubated at 37 °C with shaking until OD ~0.6 and transferred (450 μL) to multi- […]
(§8) μM and 1000 μM. Induction plates were incubated at 37 °C, with shaking at 1000 RPM (Stuart microtitre plate shaker incubator) for 3 hours. Cells were harvested by centrifugation, washed twice and re-suspended with PBS buffer. Expression output was analyzed by monitoring the fluorescence normalised to cell density (RFU/OD) in a multimode plate reader. […]
Compounds for screening were selected using cinnamic acid as a reference structure. The 58 selected compounds were tested with the PLC biosensor in E. coli BL21 cells. The substrate screening assays were performed using concentrations ranging from 0.32 μM to 1000 μM, as described for Ferulic acid. […]
(§9) Data Processing and Curve Fitting
(§10) Biosensor signal output (eGFP expression) was measured as Relative Fluorescence Units (RFU) and normalised to cell density (OD600). The background auto-fluorescence of E. coli was subtracted from RFU/OD and was normalised (%) to the pLC biosensor response curve to ferulic acid for each experiment. The normalised data was plotted and fitted with a dose-response curve using the Levenberg Marquardt logistic growth/sigmoidal algorithm, using the Origin 2015 (OriginLab, Northampton MA USA) program. The biomass screening data was […]

[2] = test system: PPC biosensor; test: PPC biosensor eGFP expression (RFU/OD600) in E. coli BL21; type: cell-based
Experimental: as §1, §2, §3, §4, §5, §6, §7, §8, §9, §10

[3] = test system: PferB biosensor; test: PferB biosensor eGFP expression (RFU/OD600) in E. coli BL21; type: cell-based
Experimental: as §1, §2, §3, §4, §5, §6, §7, §8, §9, §10

[4] = test system: PLC biosensor; test: PLC biosensor eGFP expression in E. coli K strain (DH10B, Top10F'); type: cell-based
Experimental: as §1, §2, §3, §4, §5, §6, §7, §8, §9, §10

[5] = test system: PPC biosensor; test: PPC biosensor eGFP expression in E. coli K strain (DH10B, Top10F'); type: cell-based
Experimental: as §1, §2, §3, §4, §5, §6, §7, §8, §9, §10

[6] = test system: PferB biosensor; test: PferB biosensor eGFP expression in E. coli K strain (DH10B, Top10F'); type: cell-based
Experimental: as §1, §2, §3, §4, §5, §6, §7, §8, §9, §10

[7] = test system: ferA knock-out (AKO) PLC and PferB systems; test: FerA knock-out (AKO) system FA induction assay; type: cell-based; conditions: ferA knock-out (AKO) strains, E. coli BL21
Description: as §2, §3
The construct was cloned in a p15 plasmid flanked by NaeI/KasI restriction sites generating the p15FerCA vector. The ferA gene was removed by restriction digestion of two XbaI flanking sites. The remaining backbone with ferC was re-circularized to originate the p15FerC vector, and the obtained plasmid was sequenced to confirm identity.
as §6
Reporter controls and the biosensor systems PLC, PPC and PferB were respectively generated by transformation of pET44PLCeGFP, pET44PPCeGFP and pET44PFerBeGFP vectors alone or with p15FerCA in BL21 and DH10B chemically competent E. coli cells. […] Expression output was analyzed by monitoring the fluorescence normalised to cell density (RFU/OD) in a multimode plate reader. […]

[8] = Escherichia coli, BL21, ferulic acid dose response, PLC biosensor, E. coli BL21
[9] = Escherichia coli, BL21, substrate screening, PLC biosensor, E. coli BL21
[10] = ferulic acid, PLC biosensor, E. coli BL21, text
[11] = ferulic acid dose response, PPC biosensor, E. coli BL21
[12] = ferulic acid dose response, PferB biosensor, E. coli BL21
[13] = PLC biosensor, E. coli K strain (DH10B)
[14] = ferulic acid dose response, PLC biosensor, Top10F' (DH10B)
[15] = ferulic acid dose response, PPC biosensor, Top10F' (DH10B)
[16] = ferulic acid dose response, PferB biosensor, Top10F' (DH10B)

**Q.** `COc1cc(/C=C/C(=O)O)ccc1O` [compound 1, trans-Ferulic acid] was tested. Which EC10 [1, 8] did it give?
**A.** Its EC10 is 5.6 µM.

**Q.** And the EC50 [1, 8]?
**A.** The EC50 was 20.9 ± 4.2 µM.

**Q.** What about the EC90 [1, 8] of the same compound?
**A.** The EC90 was 77.4 µM.

**Q.** And the Emax ([1]; Escherichia coli, BL21, read-out: Induction)?
**A.** The Emax was greater than 70%.

**Q.** And the maximal fold induction ([1]; Escherichia coli, BL21, read-out: Signal range (max/min), ferulic acid dose response, PLC biosensor, E. coli BL21)?
**A.** The maximal fold induction was 22.8.

**Q.** What about the maximal fold induction ([1]; Escherichia coli, BL21, read-out: Signal range (max/min), substrate screening, PLC biosensor, E. coli BL21) of the same compound?
**A.** Its maximal fold induction is 26.2.

**Q.** And the EC10 [1, 9]?
**A.** The EC10 was 3.9 µM.

**Q.** And the EC50 [1, 9]?
**A.** The EC50 was 15.3 ± 0.9 µM.

**Q.** And the EC90 [1, 9]?
**A.** The EC90 was 59.5 µM.

**Q.** And the Saturation concentration ([1]; ferulic acid dose response, PLC biosensor, E. coli BL21)?
**A.** Its Saturation concentration is no less than 100 µM.

**Q.** And the “De-repression (incomplete), % of the PLC reporter” value ([1]; ferulic acid, PLC biosensor, E. coli BL21)?
**A.** The value was roughly 85%.

**Q.** And the Sensing range [1, 10]?
**A.** Its Sensing range is 13 fold.

**Q.** What about the Signal range [1, 10] of the same compound?
**A.** The Signal range was roughly 23 fold.

**Q.** What about the Induction ([1]; substrate screening, PLC biosensor, E. coli BL21, 0.32–1000 μM) of the same compound?
**A.** The Induction was “H (high output signals, and hence good efficacy (>70%))”.

**Q.** What about the Signal read-out range ([1]; substrate screening, PLC biosensor, E. coli BL21, text) of the same compound?
**A.** The Signal read-out range was greater than 25 fold.

**Q.** And the EC50 ([2]; Escherichia coli, BL21)?
**A.** The EC50 was 11.2 ± 1.1 µM.

**Q.** What about the EC90 ([2]; Escherichia coli, BL21) of the same compound?
**A.** The EC90 was 38 µM.

**Q.** What about the “Concentration for complete de-repression” value [2, 11] of the same compound?
**A.** The value was no less than 40 µM.

**Q.** And the EC10 [2, 11]?
**A.** Its EC10 is 3.3 µM.

**Q.** What about the “Ebasal (fitting curve)” value [2, 11] of the same compound?
**A.** The value was 4.2 RFU/OD.

**Q.** What about the “Emax (fitting curve)” value [2, 11] of the same compound?
**A.** The value was 46.6 RFU/OD.

**Q.** And the “Sensing range (EC90/EC10)” value [2, 11]?
**A.** Its value is 11.5.

**Q.** What about the “Signal range (max/min)” value [2, 11] of the same compound?
**A.** The value was 10.4.

**Q.** What about the “p (fitting curve)” value [2, 11] of the same compound?
**A.** The value was 1.8.

**Q.** What about the EC50 ([3]; Escherichia coli, BL21) of the same compound?
**A.** The EC50 was 60.5 ± 2.3 µM.

**Q.** What about the EC90 ([3]; Escherichia coli, BL21) of the same compound?
**A.** Its EC90 is 191 µM.

**Q.** And the EC10 [3, 12]?
**A.** Its EC10 is 19.2 µM.

**Q.** And the “Ebasal (fitting curve)” value [3, 12]?
**A.** Its value is 3.7 RFU/OD.

**Q.** What about the “Emax (fitting curve)” value [3, 12] of the same compound?
**A.** Its value is 17.0 RFU/OD.

**Q.** And the “Sensing range (EC90/EC10)” value [3, 12]?
**A.** The value was 9.9.

**Q.** And the “Signal range (max/min)” value [3, 12]?
**A.** The value was 5.0.

**Q.** What about the “p (fitting curve)” value [3, 12] of the same compound?
**A.** Its value is 1.9.

**Q.** What about the De-repression ([3]; ferulic acid, PferB biosensor, E. coli BL21) of the same compound?
**A.** The De-repression was “effectively de-repressed”.

**Q.** And the EC50 ([4]; Escherichia coli)?
**A.** Its EC50 is 22.8 ± 5.2 µM.

**Q.** What about the EC90 ([4]; Escherichia coli) of the same compound?
**A.** The EC90 was 83 µM.

**Q.** What about the De-repression [4, 13] of the same compound?
**A.** Its De-repression is “incomplete de-repression”.

**Q.** What about the Relative signal range [4, 13] of the same compound?
**A.** The Relative signal range was roughly 19 fold.

**Q.** And the “Sensing range (EC90/EC10)” value [4, 13]?
**A.** The value was 13 fold.

**Q.** And the EC10 [4, 14]?
**A.** Its EC10 is 6.3 µM.

**Q.** And the “Ebasal (fitting curve)” value [4, 14]?
**A.** The value was 6.1 RFU/OD.

**Q.** What about the “Emax (fitting curve)” value [4, 14] of the same compound?
**A.** The value was 100.0 RFU/OD.

**Q.** And the “Sensing range (EC90/EC10)” value [4, 14]?
**A.** Its value is 13.3.

**Q.** What about the “Signal range (max/min)” value [4, 14] of the same compound?
**A.** The value was 19.2.

**Q.** What about the “p (fitting curve)” value [4, 14] of the same compound?
**A.** The value was 1.7.

**Q.** What about the EC50 ([5]; Escherichia coli) of the same compound?
**A.** The EC50 was 10.4 µM.

**Q.** And the EC90 ([5]; Escherichia coli)?
**A.** The EC90 was 33.3 µM.

**Q.** And the De-repression ([5]; PPC biosensor, E. coli K strain (DH10B))?
**A.** Its De-repression is “complete de-repression”.

**Q.** And the EC10 [5, 15]?
**A.** The EC10 was 3.3 µM.

**Q.** What about the “Ebasal (fitting curve)” value [5, 15] of the same compound?
**A.** The value was 4.7 RFU/OD.

**Q.** And the “Emax (fitting curve)” value [5, 15]?
**A.** The value was 44.7 RFU/OD.

**Q.** What about the “Sensing range (EC90/EC10)” value [5, 15] of the same compound?
**A.** The value was 10.2.

**Q.** What about the “Signal range (max/min)” value [5, 15] of the same compound?
**A.** The value was 12.4.

**Q.** And the “p (fitting curve)” value [5, 15]?
**A.** The value was 1.9.

**Q.** What about the EC50 ([6]; Escherichia coli) of the same compound?
**A.** The EC50 was 79.6 µM.

**Q.** And the EC90 ([6]; Escherichia coli)?
**A.** The EC90 was 276 µM.

**Q.** What about the De-repression ([6]; PferB biosensor, E. coli K strain (DH10B)) of the same compound?
**A.** Its De-repression is “complete de-repression”.

**Q.** What about the EC10 [6, 16] of the same compound?
**A.** The EC10 was 22.9 µM.

**Q.** And the “Ebasal (fitting curve)” value [6, 16]?
**A.** The value was 4.3 RFU/OD.

**Q.** And the “Emax (fitting curve)” value [6, 16]?
**A.** Its value is 20.5 RFU/OD.

**Q.** What about the “Sensing range (EC90/EC10)” value [6, 16] of the same compound?
**A.** Its value is 12.0.

**Q.** And the “Signal range (max/min)” value [6, 16]?
**A.** The value was 4.7.

**Q.** And the “p (fitting curve)” value [6, 16]?
**A.** Its value is 1.8.

**Q.** And the “De-repression phenotype upon addition to growth media” value [7]?
**A.** The value was “lacked the de-repression phenotype”.
